Experiment [1] deals with serum uric acid level. Nature of the experiment: Hypouricemic effect (rat oxonate-induced high uric acid model), test (A). It counts as in vivo. The settings on record: Wistar rats, potassium oxonate 250 mg/kg s.c., 2 hours after oral administration, normal group 100% inhibition, control group 0%. The method, then: (A) For evaluating the serum uric acid level depressing capability of the compounds of the present invention, the following test was carried out using an oxonate-induced high uric acid model.
A 0.5% methyl cellulose liquid (normal group, control group) or a test compound suspended in 0.5% methyl cellulose (compound-administered group) was orally administered to 5 or 6-week-age male Wistar rats. One hour before blood collection, saline (normal group), or 250 mg/kg of potassium oxonate suspended in saline (control group, compound-administered group) was subcutaneously administered to the rats. 2 hours or 18 hours after the compound or methyl cellulose liquid administration, the blood was collected from each rat. The serum was separated from the collected blood, and the serum uric acid level was measured according to a phosphorus tungstate method (Am. J. Clin. Pathol., 28, 152-, 1957).
This test confirmed the excellent hypouricemic effect of the compounds of the present invention. For example, ED50 of the compound of Example 136 was 0.2 mg/kg in 2 hours after oral administration (for this, the serum uric acid level of the normal group was defined as 100% inhibition and the serum uric acid level of the control group was as 0% inhibition).

Experiment [2] addresses T1, xanthine oxidase (derived from butter milk, by Sigma) (Bos taurus, UniProt P80457).
T1 construct: xanthine oxidase (derived from butter milk, by Sigma); purchased Sigma; host or cells: butter milk (natural source)
Nature of the experiment: Xanthine oxidase inhibiting activity. The settings on record: pterin 5 μM as substrate, isoxanthopterin light emission, room temperature; read-out: IC50 (concentration of the test compound for 50% inhibition). It counts as biochemical. The method, then: A test compound was dissolved in DMSO (by Nacalai) to have a concentration of 10 mM, and then just before use, its concentration was adjusted to a desired one.
The xanthine oxidase inhibitory activity of the compound of the present invention was evaluated according to a partly modified method of a method described in a reference “Free Radic. Biol. Med. 6, 607-615, 1992”. Concretely, xanthine oxidase (derived from butter milk, by Sigma) was mixed with 50 mM phosphate buffer to be 0.03 units/ml, and applied to a 96-well plate in an amount of […]. The test compound diluted to have a final concentration was added to the plate in an amount of 2 μl/well, and processed at room temperature for 20 minutes. Pterin (by Sigma) was added to it to have a final concentration of 5 μM in an amount of 50 μl/well, and reacted at room temperature for 10 minutes. Under a condition of excitation at 345 nm and emission at […] (pterin is oxidized by xanthine oxidase to give isoxanthopterin, and under the condition it emits light), the sample was analyzed using a microplate reader sapphire (by Tacan).
The light emission by isoxanthopterin in the presence or absence of xanthine oxidase was defined as 0% inhibition and 100% inhibition, respectively, and the concentration (IC50) of the test compound for 50% inhibition was computed.

Some results are limits rather than exact numbers.

T1 sequence (P80457 whole entry): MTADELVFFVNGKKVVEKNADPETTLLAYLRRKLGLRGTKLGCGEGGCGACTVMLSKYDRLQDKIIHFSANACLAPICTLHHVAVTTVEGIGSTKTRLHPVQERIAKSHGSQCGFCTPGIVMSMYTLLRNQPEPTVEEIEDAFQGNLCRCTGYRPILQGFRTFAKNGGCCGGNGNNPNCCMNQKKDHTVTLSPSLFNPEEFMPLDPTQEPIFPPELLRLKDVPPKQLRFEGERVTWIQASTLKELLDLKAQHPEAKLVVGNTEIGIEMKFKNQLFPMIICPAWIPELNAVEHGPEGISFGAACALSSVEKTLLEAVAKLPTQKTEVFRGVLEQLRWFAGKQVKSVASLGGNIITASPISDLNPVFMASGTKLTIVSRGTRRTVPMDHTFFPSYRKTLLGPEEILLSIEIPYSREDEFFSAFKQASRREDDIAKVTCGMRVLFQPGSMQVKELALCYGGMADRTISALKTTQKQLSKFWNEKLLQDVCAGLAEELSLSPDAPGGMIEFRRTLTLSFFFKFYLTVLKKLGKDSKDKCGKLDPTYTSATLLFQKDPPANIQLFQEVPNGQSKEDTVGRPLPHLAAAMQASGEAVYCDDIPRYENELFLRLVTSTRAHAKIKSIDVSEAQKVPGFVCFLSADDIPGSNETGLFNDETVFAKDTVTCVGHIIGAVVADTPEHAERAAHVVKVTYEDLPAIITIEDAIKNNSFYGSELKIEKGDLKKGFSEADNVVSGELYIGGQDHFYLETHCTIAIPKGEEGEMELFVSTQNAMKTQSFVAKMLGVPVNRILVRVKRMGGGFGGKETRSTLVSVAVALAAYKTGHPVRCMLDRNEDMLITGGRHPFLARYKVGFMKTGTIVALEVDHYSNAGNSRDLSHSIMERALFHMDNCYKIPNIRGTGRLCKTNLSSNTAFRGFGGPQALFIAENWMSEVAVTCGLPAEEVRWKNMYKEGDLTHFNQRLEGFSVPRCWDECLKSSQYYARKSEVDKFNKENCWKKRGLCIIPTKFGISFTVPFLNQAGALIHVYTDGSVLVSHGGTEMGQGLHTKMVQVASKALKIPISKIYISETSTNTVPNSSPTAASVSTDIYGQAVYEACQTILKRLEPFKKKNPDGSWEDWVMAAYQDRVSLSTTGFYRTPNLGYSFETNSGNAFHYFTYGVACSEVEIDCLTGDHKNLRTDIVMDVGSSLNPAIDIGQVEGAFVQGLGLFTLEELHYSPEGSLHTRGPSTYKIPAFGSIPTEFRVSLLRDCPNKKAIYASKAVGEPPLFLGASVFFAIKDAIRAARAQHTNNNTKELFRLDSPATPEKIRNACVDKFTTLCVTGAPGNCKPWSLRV

Broadly, the ED50 is the dose that gives a 50% effect, or the effect in half of the subjects. `N#Cc1cc(-c2cc(C(=O)[O-])ccn2)ccc1-c1ccccc1.[Na+]` [Example 1, sodium 2-(2-cyanobiphenyl-4-yl)isonicotinate] displayed an ED50 in experiment [1] of less than 1 mg/kg. Same read-out and setting: then `N#Cc1cc(-c2ccc(C(=O)O)s2)ccc1-c1ccccc1` [Example 68, 5-(2-cyanobiphenyl-4-yl)thiophene-2-carboxylic acid], with less than 1 mg/kg. In the case of `CC(C)(C)c1ccc(-c2ccc(-c3ccc(C(=O)O)s3)cc2C#N)cc1` [Example 94], the IC50 in experiment [2] turned out to be 0.5 nM.

`Cc1nc(-c2ccc(-c3ccccc3)c(C#N)c2)sc1C(=O)O` [Example 123, 2-(2-cyanobiphenyl-4-yl)-4-methyl-1,3-thiazole-5-carboxylic acid] registered an ED50 in experiment [1] of less than 1 mg/kg. The same measure, in the same setting: as for `Cc1ccc(-c2ccc(-c3nc(C)c(C(=O)O)s3)cc2C#N)cc1` [Example 124, 2-(2-cyano-4′-methylbiphenyl-4-yl)-4-methyl-1,3-thiazole-5-carboxylic acid], the figure is less than 1 mg/kg; as for `COc1ccc(-c2ccc(-c3nc(C)c(C(=O)O)s3)cc2C#N)cc1` [Example 127, 2-(2-cyano-4′-methoxybiphenyl-4-yl)-4-methyl-1,3-thiazole-5-carboxylic acid], less than 1 mg/kg. On to `Cc1cccc(-c2ccc(-c3nc(C)c(C(=O)O)s3)cc2C#N)c1` [Example 129, 2-(2-cyano-3′-methylbiphenyl-4-yl)-4-methyl-1,3-thiazole-5-carboxylic acid], for which the IC50 in experiment [2] stood at 0.9 nM. In experiment [1], `N#Cc1cc(-c2ncc(C(=O)O)s2)ccc1-c1ccccc1` [Example 136, 2-(2-cyanobiphenyl-4-yl)-1,3-thiazole-5-carboxylic acid] returned an ED50 of 0.2 mg/kg. On to `N#Cc1cc(-n2cc(C(=O)O)cn2)ccc1-c1ccccc1` [Example 137, 1-(2-cyanobiphenyl-4-yl)-1H-pyrazole-4-carboxylic acid], for which, in experiment [1], the ED50 was less than 1 mg/kg. Take `COc1ccc(-c2ccc(-n3cc(C(=O)O)cn3)cc2C#N)cc1` [Example 140, 1-(2-cyano-4′-methoxybiphenyl-4-yl)-1H-pyrazole-4-carboxylic acid]: the ED50 in experiment [1] was less than 1 mg/kg. Moreover, the IC50 in experiment [2] came out at 1.4 nM. The molecule `Cn1nc(-c2ccc(-c3ccccc3)c(C#N)c2)cc1C(=O)O` [Example 146, 3-(2-cyanobiphenyl-4-yl)-1-methyl-1H-pyrazole-5-carboxylic acid] had a 50% effective dose (ED50) in experiment [1] of less than 1 mg/kg.

The record behind these values is patent publication US7816558B2, “Triarylcarboxylic acid derivative” (Astellas Pharma Inc., priority 2005, dated 2010).
